Values joined by “and” are separate entries in the source; they are usually repeats but may differ in a detail not shown here. Identical values can stand only once.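 Dose response: 5 concentrations. Exposure: 48 h. Format: 96-well plates. Endpoint: linear interpolation; highest concentration if not reached. GI50 is the concentration that inhibits growth by half.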 Active and inactive are the calls of the source. Cut-off read from the data, not from the text of the source: active = GI50 up to about 1.1 µM and inactive = higher.
What was measured:
Test in all cases: NCI anticancer screen, dose series, 48 h
[1] = system: OVCAR-3
[2] = system: HL-60
[3] = system: HCT-116
[4] = system: EKVX
[5] = system: SK-MEL-2
[6] = system: SNB-75
[7] = system: Hs-578T
[8] = system: MCF7
[9] = system: KM12
[10] = system: SNB-19
[11] = system: CAKI-1
[12] = system: HOP-92
[13] = system: SF-268
[14] = system: SF-295
[15] = system: SK-OV-3
[16] = system: PC-3
[17] = system: OVCAR-5
[18] = system: K562
[19] = system: M14
[20] = system: MOLT-4

| Compound | GI50 [1] | GI50 [2] | GI50 [3] | GI50 [4] | GI50 [5] | GI50 [6] | GI50 [7] | GI50 [8] | GI50 [9] | GI50 [10] | GI50 [11] | GI50 [12] | GI50 [13] | GI50 [14] | GI50 [15] | GI50 [16] | GI50 [17] | GI50 [18] | GI50 [19] | GI50 [20] |
| --- | --- | --- | --- | --- | --- | --- | --- | --- | --- | --- | --- | --- | --- | --- | --- | --- | --- | --- | --- | --- |
| COc1cc(C)cc2c1C(=O)C(Br)=CC2=O | 4.82 µM (inactive) | 1.53 µM (inactive) | 6.7 µM (inactive) | 17.7 µM (inactive) | 14.4 µM (inactive) | 16.9 µM (inactive) | 29.4 µM (inactive) | 4.48 µM (inactive) | 15 µM (inactive) | 16.3 µM (inactive) | 1.63 µM (inactive) | 3.09 µM (inactive) | 16.4 µM (inactive) | 16.2 µM (inactive) | 19.6 µM (inactive) | 17 µM (inactive) | 19.8 µM (inactive) | 1.93 µM (inactive) | 3.3 µM (inactive) | 2.39 µM (inactive) |
| Cc1cccc(/N=C/C=C(\Cl)c2ccc3ccccc3c2)c1 | 15 µM (inactive) | 11.4 µM (inactive) | 2.98 µM (inactive) | 39.5 µM (inactive) | 22.9 µM (inactive) | > 39.3 µM (inactive) | 26.6 µM (inactive) | 16.4 µM (inactive) | 17.7 µM (inactive) | 13.9 µM (inactive) | 17.2 µM (inactive) | 24.1 µM (inactive) | 22.9 µM (inactive) | 32.1 µM (inactive) | 23.4 µM (inactive) | 21 µM (inactive) | 27.8 µM (inactive) | 12.6 µM (inactive) | 17.1 µM (inactive) | 2.56 µM (inactive) |
| CC(C)/C(Cl)=N\OC(=O)Nc1ccc(S(N)(=O)=O)cc1 | 14.3 µM (inactive) | 1.89 µM (inactive) | 13.5 µM (inactive) | 18.5 µM (inactive) | 18.7 µM (inactive) | 9.33 µM (inactive) | 25.2 µM (inactive) | 12.1 µM (inactive) | 18.4 µM (inactive) | > 53.2 µM (inactive) | 17.3 µM (inactive) | 5.25 µM (inactive) | 23.9 µM (inactive) | 15.7 µM (inactive) | 17.7 µM (inactive) | 18.5 µM (inactive) | 18.3 µM (inactive) | 2.79 µM (inactive) | 8.13 µM (inactive) | 2.32 µM (inactive) |
| O=C1N/C(=N/N=C\C(O)C(O)C(O)CO)N/C1=C/c1ccc(Cl)cc1 (stereo not given) | 21.6 µM (inactive) and 17.2 µM (inactive) | 35.7 µM (inactive) | 43.9 µM (inactive) and 46.2 µM (inactive) | 34.8 µM (inactive) and 26.7 µM (inactive) | 30.5 µM (inactive) and 40.1 µM (inactive) | 41.5 µM (inactive) and 32.9 µM (inactive) | 40.1 µM (inactive) and 29 µM (inactive) | 29.2 µM (inactive) | 29.9 µM (inactive) and 37.2 µM (inactive) | 27 µM (inactive) and 29 µM (inactive) | 57 µM (inactive) and 47 µM (inactive) | 17 µM (inactive) and 32.1 µM (inactive) | 27 µM (inactive) and 30.3 µM (inactive) | 41.5 µM (inactive) | 63.5 µM (inactive) | 42.8 µM (inactive) and 37.5 µM (inactive) | 81.1 µM (inactive) | 27.3 µM (inactive) and 27.2 µM (inactive) | 25.9 µM (inactive) | 18.5 µM (inactive) and 16.3 µM (inactive) |
| CC[C@@]1(O)C(=O)OCc2c1cc1n(c2=O)Cc2cc3ccccc3nc2-1 [CAMPTOTHECIN] | 0.177 µM (active) | 0.015 µM (active) | 0.023 µM (active) | 0.0951 µM (active) | 0.298 µM (active) | 0.0272 µM (active) | 0.817 µM (active) | 0.0113 µM (active) | 0.159 µM (active) | 0.0182 µM (active) | 0.0118 µM (active) | 0.0337 µM (active) | 0.0115 µM (active) | 0.0115 µM (active) | 0.0202 µM (active) | 0.0644 µM (active) | 0.0809 µM (active) | 0.0764 µM (active) | < 0.0206 µM (active) | < 0.01 µM (active) |
| CC(C)(C)NCCC(O)c1cc(C(F)(F)F)nc2c(C(F)(F)F)cccc12 (stereo not given) | 8.38 µM (inactive) | 6.37 µM (inactive) | 5.07 µM (inactive) | 14 µM (inactive) | 11.2 µM (inactive) | 11.1 µM (inactive) | 14.2 µM (inactive) | 12.6 µM (inactive) | 2.77 µM (inactive) | 13.6 µM (inactive) | 4.25 µM (inactive) | 12.3 µM (inactive) | 11.4 µM (inactive) | 8.75 µM (inactive) | 16.2 µM (inactive) | 8.57 µM (inactive) | 15.2 µM (inactive) | 5.14 µM (inactive) | 7.83 µM (inactive) | 4.12 µM (inactive) |
| Cc1ccc([S+](c2ccccc2)c2cc(C)ccc2C)cc1.O=C(OC(C(=O)[O-])C(OC(=O)c1ccccc1)C(=O)O)c1ccccc1 (stereo not given) | 3.14 µM (inactive) | 3.13 µM (inactive) | 3.49 µM (inactive) | > 100 µM (inactive) | 3.51 µM (inactive) | 8.09 µM (inactive) | 5.12 µM (inactive) | 4.88 µM (inactive) | 3.91 µM (inactive) | 4.83 µM (inactive) | 14.6 µM (inactive) | 13.5 µM (inactive) | 22.1 µM (inactive) | 11.9 µM (inactive) | 16.9 µM (inactive) | 2.83 µM (inactive) | 23.2 µM (inactive) | 2.53 µM (inactive) | 18.9 µM (inactive) | 26.5 µM (inactive) |
